Measurements published in patent US10227312B2, “Glucosylceramide synthase inhibitors for the treatment of diseases” (BIOMARIN PHARMACEUTICAL INC., priority 2015, dated 2019).

Assays:
[1] = tested on: K562 cells; experiment: K562 Cell-Based Assay; settings: Homo sapiens, NBD-Ceramide, LCMS, read-out: Assay 2 (Cellular Assay; K562 cells) IC50
Protocol: This assay was modified based on the study by Gupta et al. (J. Lipid Res. 2010, 51, 866). K562 cells were seeded into 12-well plates at 3×10^5 cells/well/mL in RPMI-1640 medium with 5% FBS and incubated at 37° C. for 24 h. One μL of a compound described herein at desired concentration (10 mM, 1 mM, 0.1 mM, 0.01 mM, 0.001 mM and 0.0001 mM in DMSO) or DMSO was added into the corresponding well and mixed. Cells were incubated at 37° C. for 4 h. Then 100 μL of RPMI-1640 medium containing 110 μM of NBD-Ceramide, 11% BSA, 5% FBS, and corresponding concentration of a compound described herein was added into each well and mixed. Cells were incubated for additional 0.5 h at 37° C., followed by washing the cells with ice-cold PBS (pH 7.4) twice with centrifugation and resuspended with 50 μL cold PBS+1% Triton X-100. The cell lysate was sonicated for 15 min before adding equal volume of methanol for LCMS analysis. A small aliquot of cell lysate was used to determine protein concentration by BCA assay kit. The HPLC equipment and methods used in Assay 1 were used in this assay as well and IC50's were calculated.

[2] = target: glucosylceramide synthase (GCS) (Canis lupus familiaris, UniProt A0A8I3MXG6); experiment: GCS Enzymatic Assay (MDCK lysates); type: biochemical, canine; settings: MDCK cell lysate, C6-NBD-Ceramide, 37° C. for 1 hour, LC/MS; read-out: Assay 1 (Enzyme Assay; MDCK lysates) IC50
glucosylceramide synthase (GCS), sequence (A0A8I3MXG6 1-394): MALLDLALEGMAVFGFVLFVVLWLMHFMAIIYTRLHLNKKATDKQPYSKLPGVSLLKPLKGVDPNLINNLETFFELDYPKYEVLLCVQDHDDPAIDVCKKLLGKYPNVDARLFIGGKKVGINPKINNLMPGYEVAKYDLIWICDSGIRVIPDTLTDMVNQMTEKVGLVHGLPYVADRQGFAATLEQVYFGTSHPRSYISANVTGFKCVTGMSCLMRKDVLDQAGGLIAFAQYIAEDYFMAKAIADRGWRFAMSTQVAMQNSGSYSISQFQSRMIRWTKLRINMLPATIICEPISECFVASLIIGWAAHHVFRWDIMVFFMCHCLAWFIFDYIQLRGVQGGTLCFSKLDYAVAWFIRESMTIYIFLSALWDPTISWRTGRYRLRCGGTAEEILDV

Row | IC50 [1] [nM] | IC50 [2] [nM] | Compound
1 | 10 to 100 | < 10 | O=C(N[C@H](CN1CCCC1)[C@H](O)c1ccc(OC2CC2)c(Cl)c1)C1=NOCc2c1ccc1ncccc21 [Example 36, N-((1R,2R)-1-(3-chloro-4-cyclopropoxyphenyl)-1-hydroxy-3-(pyrrolidin-1-yl)propan-2-yl)-1H-[1,2]oxazino[5,4-f]quinoline-4-carboxamide]
2 | ≤ 10 | < 10 | O=C(N[C@H](CN1CCCC1)[C@H](O)c1ccc(OC2CC2)c(Cl)c1)C1=NOCc2c1ccc1cc(Cl)sc21 [Example 37, 2-chloro-N-((1R,2R)-1-(3-chloro-4-cyclopropoxyphenyl)-1-hydroxy-3-(pyrrolidin-1-yl)propan-2-yl)-9H-thieno[2′,3′:3,4]benzo[1,2-d][1,2]oxazine-6-carboxamide]
3 | ≤ 10 | 10 to 100 | O=C(N[C@H](CN1CCCC1)[C@H](O)c1ccc(OC2CC2)c(F)c1)C1=NCCc2cc(-c3ccc(F)cc3)ccc21 [Example 38, N-((1R,2R)-1-(4-cyclopropoxy-3-fluorophenyl)-1-hydroxy-3-(pyrrolidin-1-yl)propan-2-yl)-6-(4-fluorophenyl)-3,4-dihydroisoquinoline-1-carboxamide]
4 | ≤ 10 | 10 to 100 | CN(C(=O)C1=NCCc2cc(-c3ccc(F)cc3)ccc21)[C@H](CN1CCCC1)[C@H](O)c1ccc(OC2CC2)c(Cl)c1 [Example 39, N-((1R,2R)-1-(3-chloro-4-cyclopropoxyphenyl)-1-hydroxy-3-(pyrrolidin-1-yl)propan-2-yl)-6-(4-fluorophenyl)-N-methyl-3,4-dihydroisoquinoline-1-carboxamide]
5 | ≤ 10 | 10 to 100 | O=C(N[C@H](CN1CCCC1)[C@H](O)c1ccc(OC2CC2)cc1)C1=NOCc2c1ccc1sc(Cl)cc21 [Example 44, 8-chloro-N-((1R,2R)-1-(4-cyclopropoxyphenyl)-1-hydroxy-3-(pyrrolidin-1-yl)propan-2-yl)-1H-thieno[3′,2′:3,4]benzo[1,2-d][1,2]oxazine-4-carboxamide]
6 | 10 to 100 | < 10 | O=C(N[C@H](CN1CCCC1)[C@H](O)c1ccc(OC2CC2)c(Cl)c1)C1=NOCc2cc(OCC3CCCCC3)ccc21 [Example 45, N-((1R,2R)-1-(3-chloro-4-cyclopropoxyphenyl)-1-hydroxy-3-(pyrrolidin-1-yl)propan-2-yl)-7-(cyclohexylmethoxy)-1H-benzo[d][1,2]oxazine-4-carboxamide]
7 | ≤ 10 | < 10 | Cn1ncc2ccc3c(c21)CON=C3C(=O)N[C@H](CN1CCCC1)[C@H](O)c1ccc(OC2CC2)c(F)c1 [Example 46, N-((1R,2R)-1-(4-cyclopropoxy-3-fluorophenyl)-1-hydroxy-3-(pyrrolidin-1-yl)propan-2-yl)-1-methyl-1,9-dihydro[1,2]oxazino[4,5-g]indazole-6-carboxamide]
8 | ≤ 10 | < 10 | O=C(N[C@H](CN1CCCC1)[C@H](O)c1ccc(OC2CC2)c(F)c1)C1=NOCc2c1ccc1cc(Cl)sc21 [Example 47, 2-chloro-N-((1R,2R)-1-(4-cyclopropoxy-3-fluorophenyl)-1-hydroxy-3-(pyrrolidin-1-yl)propan-2-yl)-9H-thieno[2′,3′:3,4]benzo[1,2-d][1,2]oxazine-6-carboxamide]
